The source made the active and inactive calls. The rule behind the calls is not given here.
What was measured:
[1] = biological target: T1, Bile acid receptor (Homo sapiens) (UniProt Q96RI1); test: Binding affinity to human GTS-tagged FXR LBD using fluorescein-tagged SRC2-2 at 10 nM after 15 to 30 mins by TR-FRET assay
T1 sequence (whole entry): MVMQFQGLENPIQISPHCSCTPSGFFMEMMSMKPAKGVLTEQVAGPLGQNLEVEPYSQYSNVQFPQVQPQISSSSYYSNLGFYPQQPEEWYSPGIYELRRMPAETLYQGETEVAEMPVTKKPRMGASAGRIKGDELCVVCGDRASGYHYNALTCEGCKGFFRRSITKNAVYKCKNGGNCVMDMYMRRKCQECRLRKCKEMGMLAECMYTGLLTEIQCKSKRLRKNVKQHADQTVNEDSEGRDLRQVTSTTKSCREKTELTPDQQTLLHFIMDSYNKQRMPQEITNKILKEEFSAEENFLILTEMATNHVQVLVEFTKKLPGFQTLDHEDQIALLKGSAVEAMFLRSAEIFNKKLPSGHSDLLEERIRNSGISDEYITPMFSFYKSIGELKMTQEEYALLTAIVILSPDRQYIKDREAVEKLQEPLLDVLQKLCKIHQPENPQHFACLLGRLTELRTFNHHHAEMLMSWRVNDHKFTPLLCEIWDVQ

[2] = biological target: T1, Bile acid receptor (Homo sapiens); test: Binding affinity to human GTS-tagged FXR LBD using fluorescein-tagged SRC2-2 at 10 nM after 15 to 30 mins by TR-FRET assay in presence of GW4064
[3] = biological target: T1, Bile acid receptor (Homo sapiens); test: Binding affinity to human GTS-tagged FXR LBD using fluorescein-tagged SRC2-2 at 10 nM after 15 to 30 mins by TR-FRET assay in presence of fexaramine

- Activity [1]: Active
- Activity [2]: Active
- Activity [3]: Active
SMILES: CC(C)c1onc(-c2c(Cl)cccc2Cl)c1COc1ccc(/C=C/c2cccc(C(=O)NNC(=S)Nc3ccc(-c4c5ccc(=O)cc-5oc5cc(O)ccc45)c(C(=O)O)c3)c2)c(Cl)c1

— ChEMBL document CHEMBL2396543, “Development of time resolved fluorescence resonance energy transfer-based assay for FXR antagonist discovery” (Bioorg Med Chem, 2013)
